The numbers were not newly measured in patent publication US20040156920A1, “Extracts from plant and non-plant biomass and uses thereof” (priority 2000, published 2004), which cites them from elsewhere.

The subject of series [1] is classical complement pathway.
The next series relates to male albino rats. To be noted: 20 mg/kg body weight daily subcutaneous.
The subject of another series is human blood PMN cells. Also on record: phagocytosis at higher concentration: dose or concentration left out as unconfirmed.

pIC50: −log10 of the molar value.

Regarding `CC1(C)[C@@H](O)CC[C@]2(C)[C@H]3C(=O)C=C4[C@H]5C[C@@](C)(C(=O)O)CC[C@]5(C)CC[C@@]4(C)[C@]3(C)CC[C@@H]12` [Beta-glycyrrhetinic acid], the pIC50 in series [1] is 4.46.

Consider `CCCCCCCCCCCC1=C(O)C(=O)C=C(O)C1=O` [embelin], for which the “sperm count and other fertility parameters” value with male albino rats is “inhibition of sperm count and other fertility parameters”. Take Wheat germ agglutinin: the “phagocytosis at higher concentration” value in the series on human blood PMN cells is listed as “strongly inhibited phagocytosis”. Besides, the “promotion of phagocytosis compared to Zymosan-A control” value in the series with human blood PMN cells (0.5-1.0 mg/ml) is 1.8 times.
